Here are results for twelve compounds from US6872803B1, “Peptides” (Kyowa Hakko Kogyo Co., Ltd., priority 1993, dated 2005).

Where a SMILES comes first, the peptide text is derived from it. Bridges are numbered along the chain shown (N, C = ends). [ ]: non-standard residue; d: D form. Hyp = O=C(O)[C@@H]1C[C@@H](O)CN1

For one data set, the system named is trypsin. In words: in vitro. Particulars: pH 7.2.
Data set [1] relates to T1, α-chymotrypsin.
T1 construct: purchased Sigma Co
In words: Stability to α-chymotrypsin. The class given is in vitro ADME. The conditions noted are these: α-chymotrypsin (Sigma Co.); after 6 hours; α-chymotrypsin 1/10 weight, pH 7.2, 37° C.; read-out: residual amount remaining. The method, then: (§1) To this were added α-chymotrypsin (Sigma Co.) and N^α-p-tosyl-L-lysine chloromethyl ketone (Sigma Co.) each in an amount of 1/10 weight of compound (2) or (c). […] Absorbance at 220 nm of the eluate was measured.

Data set [2] relates to prolyl-endopeptidase. In words: in vitro. The conditions noted are these: prolyl-endopeptidase (Seikagaku Corporation), pH 7.2.
Description: (§2) The resulting mixture was incubated at 37° C. and sampled at intervals. The samples were analyzed by HPLC, using a reversed-phase column (YMC-Pack, ODS-AM, 150×6 mm I.D.). Elution was carried out by linear gradient elution using acetonitrile (0% to 45%) containing 0.1% TFA for 30 minutes. Absorbance at 220 nm of the eluate was measured.
In data set [3] the target is prolyl-endopeptidase (Elizabethkingia meningoseptica, UniProt P27028). In words: in vitro. The conditions noted are these: prolyl-endopeptidase in PBS(−) buffer, pH 7.2.
Sequence of prolyl-endopeptidase (Elizabethkingia meningoseptica, UniProt P27028) (P27028 21-705): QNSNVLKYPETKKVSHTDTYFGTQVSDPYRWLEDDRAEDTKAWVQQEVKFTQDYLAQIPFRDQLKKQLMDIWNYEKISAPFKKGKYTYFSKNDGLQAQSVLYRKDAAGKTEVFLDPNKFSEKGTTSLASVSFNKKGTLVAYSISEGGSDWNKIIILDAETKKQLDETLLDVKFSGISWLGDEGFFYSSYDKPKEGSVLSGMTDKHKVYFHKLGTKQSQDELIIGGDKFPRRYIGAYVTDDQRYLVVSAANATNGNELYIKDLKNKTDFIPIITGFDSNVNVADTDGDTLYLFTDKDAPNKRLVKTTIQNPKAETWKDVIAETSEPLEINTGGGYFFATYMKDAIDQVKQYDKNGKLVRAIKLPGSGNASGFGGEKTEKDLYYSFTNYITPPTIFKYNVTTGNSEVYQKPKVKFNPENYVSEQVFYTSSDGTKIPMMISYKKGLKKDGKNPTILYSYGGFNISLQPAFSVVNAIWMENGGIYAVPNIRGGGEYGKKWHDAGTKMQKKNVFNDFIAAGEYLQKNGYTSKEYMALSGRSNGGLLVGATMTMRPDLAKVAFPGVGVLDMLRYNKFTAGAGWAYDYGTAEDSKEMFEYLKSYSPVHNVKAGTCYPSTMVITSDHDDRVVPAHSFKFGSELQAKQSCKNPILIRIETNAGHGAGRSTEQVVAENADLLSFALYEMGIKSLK
Description: as §2
The subject of data set [4] is B16-F10 (mouse melanoma) cells. In words: Cell-adhesion inhibiting activity (adhesion of biotin-labeled cells to mouse fibronectin-coated plate). Type of data set: cell-based. How it is done: To a 96-well flat bottom plate (Sumitomo Bakelite Co.) added were […] (5 μg/ml-culture) of mouse fibronectin (produced by Telios Pharmaceutical Inc.). The plate was allowed to stand for 2 hours at room temperature to coat with mouse fibronectin. Each solution was added to the plate. Next, biotin-labeled B16-F10 (mouse melanoma) cells were added thereto and incubated at 37° C. for 30 minutes. After incubation, the non-adhered cells were removed by suction, and the adhered cells were fixed by 0.25% glutaraldehyde/PBS. The thus-fixed cells were washed with Tween-PBS, and peroxidase-labeled avidin D (Vector Co.) was added thereto and reacted for one hour at room temperature. Thereafter, the cells were washed with Tween-PBS and colored with an ABTS solution. Using NJ-2001 (Nippon Intermed Co.), the absorbance of the colored cells at OD415 was measured by colorimetry.
From the absorbance thus measured, the percentage inhibition of adhesion of the cells was obtained according to the following equation: Percentage Inhibition of Cell Adhesion=[(A−B)/A]×100 • A: absorbance in the absence of the test compound • B: absorbance in the presence of the test compound […]

For data set [5], the system named is platelet-rich plasma (PRP). In words: Inhibitory activity against agglutination of platelets stimulated by collagen. The class given is cell-based, white rabbit. Particulars: collagen 10 μg/ml. How it is done: The blood was collected from the heart of a white rabbit (male weight 2 kg) and mixed with 3.8% sodium citrate (1:9 3.8% sodium citrate/blood). The mixture was centrifuged at 900 r.p.m., and the supernatant was isolated as platelet-rich plasma (PRP). The remaining lower layer was centrifuged at 2500 r.p.m., and the supernatent was isolated as platelet-poor plasma (PPP). These isolates were used in the following test. The percentage of platelet agglutination was measured, using a platelet agglutination measuring device, TE-500 (produced by Elmer Optical Co.). As the standard for platelet agglutination in this test, the percentage of platelet agglutination measured in PRP only was defined as 0%, while that measured in PPP only as 100%. Test solutions each containing a test compound, compound (1) or compound (b) were prepared so as to give a final concentration of 1, 0.3 or 0.1 mM.
Ten μl of re-distilled water (as a control) or the test solution and 200 μl of PRP were put into a cuvet and pre-incubated for 3 minutes, then 10 μl of a collagen that had been prepared to have a final concentration of 10 μg/ml were added thereto, and the percentage of platelet agglutination was measured.

For data set [6], the target named is T2, α-chymotrypsin (Bos taurus, UniProt P00766, DEL14-15/DEL147-148).
T2 construct: purchased Sigma Co
In words: Stability to α-chymotrypsin. The class given is in vitro ADME. The conditions noted are these: α-chymotrypsin (Sigma Co.) in PBS(−) buffer; α-chymotrypsin 1/10 weight, PBS(−) pH 7.2, 37° C. How it is done:
as §1

The target in data set [7] is T3, BK receptor derived from guinea pig ilea (Cavia porcellus, UniProt O70526).
T3 construct: from tissue; host or cells: guinea pig ileum membrane fraction
T3 sequence (O70526 1-372): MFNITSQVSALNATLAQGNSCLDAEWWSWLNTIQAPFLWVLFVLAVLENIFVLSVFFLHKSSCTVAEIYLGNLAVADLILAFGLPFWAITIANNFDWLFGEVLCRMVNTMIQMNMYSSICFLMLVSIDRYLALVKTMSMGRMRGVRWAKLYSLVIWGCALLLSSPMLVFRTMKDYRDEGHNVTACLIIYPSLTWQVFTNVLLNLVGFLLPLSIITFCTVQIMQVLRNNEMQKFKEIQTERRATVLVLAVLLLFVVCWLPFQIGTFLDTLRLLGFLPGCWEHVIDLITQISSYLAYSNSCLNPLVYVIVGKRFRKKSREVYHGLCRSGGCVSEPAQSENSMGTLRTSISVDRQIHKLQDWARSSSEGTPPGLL
In words: BK-receptor binding inhibiting activity. The conditions noted are these: 3H-BK 200 pM. How it is done: Inhibition of the binding of BK to the BK receptor derived from guinea pig ilea
Using a polytron (Type PT10/35, Kinematica Gmbh), guinea pig ilea was homogenized in buffer (A) (containing 25 mM N-tris(hydroxymethyl)methyl-2-aminoethane-sulfonic acid-NaOH, pH 6.8) at 4° C.
The suspension thus obtained was centrifuged at 4° C. for 10 minutes at 8,000×g, and the supernatant was collected. The supernatant was further centrifuged at 4° C. for 60 minutes at 40,000×g, and the solid was collected. The solid was suspended in buffer (A), and the resulting suspension was centrifuged at 4° C. for 60 minutes at 40,000×g. The resulting solid was suspended to give a protein content of 2 mg/ml to serve as a membrane fraction. […]
^3H-BK (200 pM) was added to each of the membrane fraction solutions, to which non-labeled BK (final concentration: 1 μM) had been added, a test compound had been added or none of these had been added. […] The filter was washed with buffer (C) (comprising 50 mM Tris-HCl, 1 mM EDTA, pH 7.6), and the radioactivity of the filter was measured, using a liquid scintillation counter (LSC3500, Aroka Co.) to determine the amount of the ^3H-BK bound to the receptor and non-specifically bound 3H-BK. […]

For data set [8] the following is noted: snake venom peptides, literature; cited from earlier work.

Usually amount remaining stands for the share of the starting amount still present when the sample was taken. With `CC(C)[C@H](NC(=O)[C@H](Cc1c[nH]c2ccccc12)NC(=O)[C@@H]1CC(=O)NCC(=O)N[C@@H](CC(N)=O)C(=O)N[C@@H](Cc2c[nH]c3ccccc23)C(=O)N[C@@H](Cc2c[nH]cn2)C(=O)NCC(=O)N[C@@H]([C@@H](C)O)C(=O)N[C@@H](C)C(=O)N2CCC[C@H]2C(=O)N1)C(=O)N[C@H](C(=O)NCC(=O)N[C@@H](CCCNC(=N)N)C(=O)NCC(=O)N[C@@H](CC(=O)O)C(=O)N[C@@H](CO)C(=O)N1CCC[C@H]1C(=O)N[C@@H](C)C(=O)O)[C@@H](C)O` [Compound 1] (GNWHGTAPDWVTGRGDSPA-OH; lactam N-9), in the data set with trypsin (trypsin (Sigma Co.)), the share remaining at 9 h, 25 μg/ml was about 60%.
In the case of `CC(C)[C@H](NC(=O)[C@H](C)NC(=O)[C@H](Cc1ccc(O)cc1)NC(=O)[C@@H](NC(=O)[C@H](Cc1c[nH]c2ccccc12)NC(=O)[C@@H]1CC(=O)NCC(=O)N[C@@H](CC(N)=O)C(=O)N[C@@H](Cc2c[nH]c3ccccc23)C(=O)N[C@@H](Cc2c[nH]cn2)C(=O)NCC(=O)N[C@@H]([C@@H](C)O)C(=O)N[C@@H](C)C(=O)N2CCC[C@H]2C(=O)N1)C(C)C)C(=O)N[C@H](C(=O)NCC(=O)N[C@@H](CCCNC(=N)N)C(=O)NCC(=O)N[C@@H](CC(=O)O)C(=O)N[C@@H](CO)C(=O)N1CCC[C@H]1C(=O)N[C@@H](C)C(N)=O)[C@@H](C)O` [Compound 2] (GNWHGTAPDWVYAVTGRGDSPA-NH2; lactam N-9), the share remaining at 6 h, 25 μg/ml with α-chymotrypsin [1] is about 95%.
`CSCC[C@H](NC(=O)[C@@H](NC(=O)[C@@H](NC(=O)[C@H](CS)NC(=O)[C@@H]1CCCN1C(=O)[C@H](CC(C)C)NC(=O)CNC(=O)[C@H](CCSC)NC(=O)[C@H](CO)NC(=O)[C@H](Cc1c[nH]c2ccccc12)NC(=O)[C@@H]1CC(=O)NCC(=O)N[C@@H](CC(N)=O)C(=O)N[C@@H](Cc2c[nH]c3ccccc23)C(=O)N[C@@H](Cc2c[nH]cn2)C(=O)NCC(=O)N[C@@H]([C@@H](C)O)C(=O)N[C@@H](C)C(=O)N2CCC[C@H]2C(=O)N1)C(C)C)C(C)C)C(=O)O` [Compound 3] (GNWHGTAPDWSMGLPCVVM-OH; lactam N-9): in the data set on prolyl-endopeptidase [2], the fraction remaining at 7 h, 25 μg/ml was about 60%.
The compound `CC[C@H](C)[C@H](NC(=O)[C@H](CS)NC(=O)[C@@H]1CCCN1C(=O)[C@H](CC(C)C)NC(=O)CNC(=O)[C@H](CCSC)NC(=O)[C@H](CO)NC(=O)[C@H](Cc1c[nH]c2ccccc12)NC(=O)[C@@H]1CC(=O)NCC(=O)N[C@@H](CC(N)=O)C(=O)N[C@@H](Cc2c[nH]c3ccccc23)C(=O)N[C@@H](Cc2c[nH]cn2)C(=O)NCC(=O)N[C@@H]([C@@H](C)O)C(=O)N[C@@H](C)C(=O)N2CCC[C@H]2C(=O)N1)C(=O)N[C@@H](Cc1ccccc1)C(=O)N[C@@H](CCSC)C(=O)O` [Compound 5] (GNWHGTAPDWSMGLPCIFM-OH; lactam N-9) yielded an amount remaining at 1 h, 25 μg/ml with prolyl-endopeptidase [2] of 63%.
In turn, “H-SMGLPCIFM-OH [Compound f, H-Ser-Met-Gly-Leu-Pro-Cys-Ile-Phe-Met-OH]” showed a share remaining at 1 h, 25 μg/ml in the data set with prolyl-endopeptidase [2] of 12%.
By half-life is commonly meant how long it takes for the measured level to halve. On to “H-SMGLPCVVM-OH [Compound d, H-Ser-Met-Gly-Leu-Pro-Cys-Val-Val-Met-OH]”, for which the half-life at 25 μg/ml on prolyl-endopeptidase [3] was under 1 h.
For the compound “H-VTGRGDSPA-OH [Compound b, H-Val-Thr-Gly-Arg-Gly-Asp-Ser-Pro-Ala-OH]”, in data set [4] (B16-F10 cells on mouse fibronectin, 37° C. 30 minutes, read-out: concentration for 50% inhibition of the adhesion of the cells (IC50)), the IC50 was found to be 1130 µM. Also, the “Percentage of platelet agglutination inhibition (%)” value in data set [5] (test compound 0.3 mM) was 20.3%; in [5] (test compound 1.0 mM), 61.2%. For the same compound, the half-life at 25 μg/ml in the data set with trypsin (trypsin (Sigma Co.) in PBS(−) buffer) was under 2 h.
Consider “H-VYAVTGRGDSPA-NH2 [c, H-Val-Tyr-Ala-Val-Thr-Gly-Arg-Gly-Asp-Ser-Pro-Ala-NH2]”, for which the “cell adhesion-inhibiting activity (comparison, FIG. 2)” value in data set [4] (same test, compound (2) versus compound (c)) is “almost the same cell adhesion-inhibiting activity”. Besides, the half-life at 25 μg/ml at α-chymotrypsin [6] was under 1 h.
As to H-[dR]RP[Hyp]GFS[dF]LR-OH [Compound m], the “Percentage inhibition (%)” value in [7] (test compound 10^−7 M) is on record as 68%; in data set [7] (test compound 10^−8 M), 20%.
As for albolarin, the “activity, times higher than the activity of Gly-Arg-Gly-Asp-Ser” value (“activity, times higher than the activity” for short) in data set [8] is on record as about 1000 times.
flavoridin: the “activity, times higher than the activity” value in data set [8] is recorded as about 1000 times.
As to trigramin, the “activity, times higher than the activity” value in [8] is listed as about 1000 times.
